# According to patent publication US20240408064A1, “RAS INHIBITORS, COMPOSITIONS AND METHODS OF USE THEREOF” (GENETOLEAD INC., priority 2021, published 2024):
# Several values for one entry are separate records, joined by “and”; a condition that tells them apart may be missing. Identical values can stand only once.
# Experiments:
# [1] = target: T1, HRas^G12V (Homo sapiens (Human), UniProt P01112, G12V); test: 19F DLB (ligand-observed 19F NMR) score; type: binding; design: scale not given here
# Procedure: (§1) All NMR experiments were collected using 3 mm NMR tubes on a 600 MHz Bruker Avance III spectrometer equipped with a QCI helium cryoprobe and a SampleJet sample changer. The buffer used for NMR experiments was 25 mM sodium phosphate pH 7.4, 150 mM NaCl, 5 mM MgCl2, 1 mM TCEP-d16, 10% D2O. Data were processed using Bruker TopSpin.
# (§2) Since the fragment library was curated using phosphate buffer, 25 mM sodium phosphate pH 7.4, 150 mM NaCl, 5 mM MgCl2, 1 mM TCEP-d16, 10% D2O Fresh TCEP was used for experiments. Screening was performed using ^1H-decoupled 1D ^19F experiment Bruker experiment (zgfhigqn.2) with 64 scans and a relaxation delay of 5 seconds. 50 μM HRas^G12V and 240 μM of each fragment in pools (mixtures) were used.
# Hit confirmation was performed using the same ^19F experiment as the screen. Ligand-observed 1D ^1H, protein-observed 1D ^1H, ^1H T2-CPMG as well as Saturation Transfer Difference (STD) experiments were also run on the same samples. Ligand-observed 1D ^1H was run using the standard Bruker sequence with excitation sculpting (zgesgp) with a relaxation delay of 10 seconds and 16 scans per spectrum. Protein-observed 1D ^1H was performed using the same sequence with a relaxation delay of 1 second and 256 scans in order to increase the signal-to-noise of the protein resonances, while keeping the experimental time relatively short. The ^1H T2-CPMG experiment employed a modified version of the Bruker 1D ^1H zgesgp experiment with the addition of a CPMG pulse train after the first 90° excitation pulse. Total duration for each spin echo was fixed at 1 ms (τ=500 μs), while the number of echoes in the pulse train was varied according to the total time (T). The number of scans for each spectrum was 4 and eight delay times were run on each sample, ranging from 1 ms to 800 ms. […]
# [2] = target: T1, HRas^G12V; test: 19F T2-CPMG NMR score; type: binding
# Procedure: as §1, §2
# Hit confirmation was performed using the same ^19F experiment as the screen. Ligand-observed 1D ^1H, protein-observed 1D ^1H, ^1H T2-CPMG as well as Saturation Transfer Difference (STD) experiments were also run on the same samples. Ligand-observed 1D ^1H was run using the standard Bruker sequence with excitation sculpting (zgesgp) with a relaxation delay of 10 seconds and 16 scans per spectrum. Protein-observed 1D ^1H was performed using the same sequence with a relaxation delay of 1 second and 256 scans in order to increase the signal-to-noise of the protein resonances, while keeping the experimental time relatively short. The ^1H T2-CPMG experiment employed a modified version of the Bruker 1D ^1H zgesgp experiment with the addition of a CPMG pulse train after the first 90° excitation pulse. Total duration for each spin echo was fixed at 1 ms (τ=500 μs), while the number of echoes in the pulse train was varied according to the total time (T). The number of scans for each spectrum was 4 and eight delay times were run on each sample, ranging from 1 ms to 800 ms.
# Because of its power to probe the intrinsically weak interactions (Kd) between targets and low-molecular weight fragments, NMR fragment-based lead discovery (FBLD) is a very useful biophysical method in early stage drug discovery, especially for challenging target proteins; including those with shallow binding pockets. Since FBLD screens are performed using low-molecular weight compounds (fragments) with lower structural complexity, the same chemical space can be covered using a smaller number of drug-like fragments versus use of large libraries of higher-molecular weight lead-like compounds as in high throughput screening (HTS) campaigns. Therefore, FBLD has a much higher hit rate than HTS using only several hundred to several thousand compounds in comparison with approximately 1 million compounds for HTS. Also, the small size of the compounds screened in FBLD means a better chance to fully match the interactions with small or transient pockets within the target protein, where these less tractable pockets cannot be accessed with standard classical HTS methods. […] We expect this methodology to be more advantageous than classical HTS methods for expediting the time from hit to lead (H2L) and allows for rapid access to high quality leads with lower attrition rates in subsequent lead optimization (LO) campaigns toward pre-clinical candidate selection. FBLD screening by NMR involves a “consensus binding” approach where several distinct NMR experiments (DLB, STD, CPMG) are applied along with a free-state aggregation detection method (T2-CPMG) to rank the compounds for their affinity to the receptor (HRAS in this case) whilst simultaneously monitoring the solution behavior and critical quality attributes of each compound. The latter helps to eliminate artifact binders which are highly problematic. We performed a fluorine screen involving 461 compounds that were derived from a highly curated fragment library. Moreover, two-dimensional ^15N HSQC NMR was also used to validate ligand-binding sites on the target protein. […]
# T1 sequence (P01112 1-166 G12V): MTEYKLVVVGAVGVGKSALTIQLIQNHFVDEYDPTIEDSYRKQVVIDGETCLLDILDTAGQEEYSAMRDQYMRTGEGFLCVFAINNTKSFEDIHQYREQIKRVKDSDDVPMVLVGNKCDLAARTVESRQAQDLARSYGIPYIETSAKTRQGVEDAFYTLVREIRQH
19F DLB Score [1],19F T2-CPMG Score [2],Structure (SMILES)
3.59,39.34,"O=C1C[C@H](c2c[nH]c3cc(F)ccc23)C(=O)N1 (single isomer, unassigned) [Compound 11039]"
3.49,,"O=C1C[C@@H](c2c[nH]c3cc(F)ccc23)C(=O)N1 (single isomer, unassigned) [Compound 11040]"
2.09,12.62,O=C(NCCc1c[nH]c2cc(F)ccc12)[C@H]1CCCO1 [Compound 10013]
4.63 and 2.64,,O=C(Cc1c[nH]c2cc(F)ccc12)N1CCOCC1 [Compound 10016]
1.62,14.34,CN1CCN(CCNC(=O)Cc2c[nH]c3cc(F)ccc23)CC1 [Compound 10020]
3.05,18.47,COc1cccc(NC(=O)Cc2c[nH]c3cc(F)ccc23)c1 [Compound 10030]
0.96,20.33,O=C(NCCc1c[nH]c2cc(F)ccc12)c1ccc(F)cc1 [Compound 10039]
2.72,37.91,O=C(Cc1c[nH]c2cc(F)ccc12)Nc1ccc2[nH]ccc2c1 [Compound 10042]
4.75,25.51,"Fc1ccc2c(CNc3ccccc3)c[nH]c2c1 [Compound 10052, N-((6-fluoro-1H-indol-3-yl)methyl) aniline]"
3.07,21.6,O=C(Cc1c[nH]c2cc(F)ccc12)Nc1cccnc1 [Compound 10058]
3.22,18.99,O=C(Cc1c[nH]c2cc(F)ccc12)Nc1ccc2c(c1)OCO2 [Compound 10059]
2.54,21.31,O=C(Cc1c[nH]c2cc(F)ccc12)N1CC2(COC2)C1 [Compound 10069]
1.77,7.09,COCC1CN(C(=O)Cc2c[nH]c3cc(F)ccc23)C1 [Compound 10075]
2.07,11.04,"O=C(Cc1c[nH]c2cc(F)ccc12)Nc1ncccn1 [Compound 10078, 2-(6-fluoro-1H-indol-3-yl)-N-(pyrimidin-2-yl) acetamide]"
2.15,15.91,COC1CN(C(=O)Cc2c[nH]c3cc(F)ccc23)C1 [Compound 10081]
2.43,21.45,"O=C(CN1CCC1)c1c[nH]c2cc(F)ccc12 [Compound 10085, 2-(azetidin-1-yl)-1-(6-fluoro-1H-indol-3-yl) ethan-1-one]"
2.16,13.65,"COC(=O)C1CN(C(=O)Cc2c[nH]c3cc(F)ccc23)C1 [Compound 10087, methyl 1-(2-(6-fluoro-1H-indol-3-yl)acetyl) azetidine-3-carboxylate]"
2.24,11.14,"COC(=O)C1CCN1C(=O)Cc1c[nH]c2cc(F)ccc12 (stereo not shown) [Compound 10088, Methyl 1-(2-(6-fluoro-1H-indol-3-yl)acetyl)azetidine-2-carboxylate]"
1.89,9.84,"COCC1(O)CN(C(=O)Cc2c[nH]c3cc(F)ccc23)C1 [Compound 10089, 2-(6-fluoro-1H-indol-3-yl)-1-(3-hydroxy-3-(methoxymethyl)azetidin-1-yl)ethan-1-one]"
1.93,7.83,CC(=O)N[C@@H]1CCN(C(=O)Cc2c[nH]c3cc(F)ccc23)C1 [Compound 10091]

19F DLB Score [1],19F T2-CPMG Score [2],Structure (SMILES)
1.4,11.85,"CC1CN(C)CCC1NC(=O)Cc1c[nH]c2cc(F)ccc12 (stereo not shown) [Compound 10099, N-(1,3-dimethylpiperidin-4-yl)-2-(6-fluoro-1H-indol-3-yl)acetamide]"
1.73,9.66,"CC(c1ccncc1)N(C)C(=O)Cc1c[nH]c2cc(F)ccc12 (stereo not shown) [Compound 10100, 2-(6-fluoro-1H-indol-3-yl)-N-methyl-N-(1-(pyridin-4-yl)ethyl)acetamide]"
1.62,7.82,"COCCOC1CN(C(=O)Cc2c[nH]c3cc(F)ccc23)C1 [Compound 10103, 2-(6-fluoro-1H-indol-3-yl)-1-(3-(2-methoxyethoxy)azetidin-1-yl) ethan-1-one]"
3.45,15.4,O=C1CCCN(C(=O)Cc2c[nH]c3cc(F)ccc23)C1 [Compound 10109]
1.89,12.42,"O=C(C1CC1)C1CN(C(=O)Cc2c[nH]c3cc(F)ccc23)C1 [Compound 10115, 1-(3-(cyclopropanecarbonyl)azetidin-1-yl)-2-(6-fluoro-1H-indol-3-yl)ethan-1-one]"
1.88,13.95,CC(C)C(=O)C1CN(C(=O)Cc2c[nH]c3cc(F)ccc23)C1 [Compound 10116]
6.06,,CC1CN(C(=O)C(C#N)c2c[nH]c3cc(F)ccc23)C1 (stereo not shown) [Compound 11033]
5.34,,CC(=O)Nc1cccc(NC(=O)C(C#N)c2c[nH]c3cc(F)ccc23)c1 (stereo not shown) [Compound 11035]
2.37,,O=C(C1CCNCC1)N1CCC(c2c[nH]c3cc(F)ccc23)C1 (stereo not shown) [Compound 11038]
3.58,,O=C(C1CCNC1)N1CCC(c2c[nH]c3cc(F)ccc23)CC1 (stereo not shown) [Compound 11046]
3.29,,O=C(C1CCCNC1)N1CCC(c2c[nH]c3cc(F)ccc23)CC1 (stereo not shown) [Compound 11048]
Non conclusive,,CN(C)Cc1cc2ccc(F)cc2[nH]1 [Compound 11049]
Non conclusive,,O=C(O)CCc1c[nH]c2cc(F)ccc12 [Compound 11050]
Non conclusive,,O=C(O)CC(c1ccc(F)cc1F)c1c[nH]c2cc(F)ccc12 (stereo not shown) [Compound 11056]
Non conclusive,,COc1ccc(C(CC(=O)O)c2c[nH]c3cc(F)ccc23)cc1 (stereo not shown) [Compound 11057]
Non conclusive,,O=C(O)CC(c1cccc(F)c1)c1c[nH]c2cc(F)ccc12 (stereo not shown) [Compound 11059]
Non conclusive,,O=C(O)C(NCc1ccccc1)c1c[nH]c2cc(F)ccc12 (stereo not shown) [Compound 11060]
Non conclusive,,O=C(O)C(NCc1cncc(Br)c1)c1c[nH]c2cc(F)ccc12 (stereo not shown) [Compound 11061]
Non conclusive,,O=C(O)C(c1c[nH]c2cc(F)ccc12)N1CCC(O)CC1 (stereo not shown) [Compound 11062]
Non conclusive,,O=C(O)C(NCc1ccc(O)cc1)c1c[nH]c2cc(F)ccc12 (stereo not shown) [Compound 11063]

Structure (SMILES),19F DLB Score [1],19F T2-CPMG Score [2]
CN1CCN(C(=O)Cc2c[nH]c3cc(F)ccc23)CC1 [Compound 10065],2.88,22.6
CC(C)N1CCN(C(=O)Cc2c[nH]c3cc(F)ccc23)CC1 [Compound 10068],2.43,10.72
"CC(C)COC1CCN(C(=O)Cc2c[nH]c3cc(F)ccc23)CC1 [Compound 10111, 2-(6-fluoro-1H-indol-3-yl)-1-(4-isobutoxypiperidin-1-yl) ethan-1-one]",2.23,12.96
